Counter-ions that a name gives are not always drawn.
Experiments:
IL-6 [1] = test: LPS-induced inflammation, ascending dose oral solution study: colonic tissue IL-6; assay type: in vivo, male Lewis rats; conditions: 4 hours
Method: (§1) Male Lewis rats were fasted overnight before the day of experiment. Rats were chosen as an in vivo model in these experiments as they are commonly used for assessment of IBD investigatory treatments. […] To induce intestinal inflammation, rats were intraperitoneally injected with 1 mg/kg LPS at T1 h. Intraperitoneal injection of LPS is an accepted method for instigating inflammation in rats as pharmacodynamic endpoints. […] Controls used in this study were naïve rats (no induction of inflammation, placebo treatment (PBS)), treatment-free rats (LPS + vehicle (PBS)), and comparative treatment control rats (induction of inflammation, treatment with 1 mg/kg oral dexamethasone solution, formulated in PEG400/polysorbate 80 in deionized water (10/9/81). Rats not treated with LPS were instead injected with the same volume of PBS solution.

IL-6 [2] = test: LPS-induced inflammation, ascending dose oral solution study: plasma IL-6; assay type: in vivo, male Lewis rats; conditions: 1 mg/kg dexamethasone solution, 4 hours after administration
Method: as §1

IL-6 [3] = test: LPS-induced inflammation, capsule studies: plasma IL-6; assay type: in vivo, male Lewis rats
Method: To induce intestinal inflammation, 1 mg/kg LPS was injected intraperitoneally into rats at T5 h, this timing was chosen based on the CT imaging results, to allow capsules to reach the intestines. Inflammation-free control rats were instead intraperitoneally injected with an equal volume of PBS. Controls used in this study were naïve rats (no induction of inflammation, vehicle treatment (PBS)), treatment-free rats (LPS + vehicle (PBS)), and comparative treatment control rats (induction of inflammation, treatment with 1 mg/kg oral dexamethasone solution, formulated in PEG400/polysorbate 80 in deionized water (10/9/81), at T4 h). Animal sacrifice occurred at T8 h (3 h after LPS administration). Terminal plasma and colonic tissue were subsequently excised, and levels of IL-6 quantified using the V-PLEX validated immunoassay kit.

IL-6 [4] = test: LPS-induced inflammation, capsule studies: colonic tissue IL-6; assay type: in vivo, male Lewis rats; conditions: 1 mg/kg dexamethasone oral; targeted vs untargeted comparison, 8 h analysis
rat colonic microbiota = test: Ex vivo stability of tofacitinib in rat cecal slurry (colonic microbiota); assay type: in vitro ADME; conditions: 1 mg/mL in rat cecal slurry, anaerobic
Method: The cecum of healthy rats (male, n = 6) was obtained shortly following animal sacrifice and transferred to an anaerobic workstation (Electrotek 500TG workstation, Electrotek, West Yorkshire, UK) maintained at 37 °C and 70% relative humidity. The rats’ cecums were opened and fluid was collected using aseptic technique to preserve the fluid’s microbial composition. Next, the fluid was homogenised with basal media (ratio 1:4, composition as used by Hughes et al. [29] at 10,000 rpm and sieved through a mesh with 5 µm aperture.
Samples were taken at 0, 1, 2, 4, and 6 h and immediately quenched with ice-cold acetonitrile at a ratio of 1:3 to arrest microbial/enzyme activity. Quenched samples were then centrifuged (9600× g, 10 min, 4 °C) and the supernatant was collected for quantification of drug concentration using HPLC.
A mobile phase consisting of 0.1% phosphoric acid in water (A) and acetonitrile (B) was used via a gradient method, whereby %A: 95 and %B: 5 from 0.0–4.0 min; and %A: 80 and %B: 20 from 4.0–6.0 min. An Agilent Zorbax-Extend C18 column (50 × 4.6 mm, 1.8 μm) (Santa Clara, CA, USA) at 1.8 mL/min, with column temperature equilibrated at 40 ± 2 °C. […] Drug concentration was calculated by comparing the area under the curve (AUC) of the drug’s peak in samples to those produced with a calibration curve.

[5] = 1 and 10 mg/kg tofacitinib solution

| time stable when delivered to the cecum/colon (rat colonic microbiota) | Structure (SMILES) | colonic tissue IL-6 compared to the treatment-free control (IL-6 [1]; 1 mg/kg dexamethasone) | IL-6 levels in plasma compared to the LPS + vehicle control (IL-6 [2]) | plasma IL-6 levels compared to the untreated control (IL-6 [3]; 1 mg/kg dexamethasone oral, targeted vs untargeted comparison, 8 h) | plasma IL-6 compared to the untreated control (IL-6 [3]; 1 mg/kg oral dexamethasone solution, dose response study) | IL-6 concentration in colonic tissue compared to the untreated control (IL-6 [4]) | colonic IL-6 concentrations compared to the naïve rats (IL-6 [1]; [5]) | colonic tissue IL-6 compared to 0.1 mg/kg tofacitinib (IL-6 [1]; [5]) |
| --- | --- | --- | --- | --- | --- | --- | --- | --- |
| – | C[C@@H]1C[C@H]2[C@@H]3CCC4=CC(=O)C=C[C@]4(C)[C@@]3(F)[C@@H](O)C[C@]2(C)[C@@]1(O)C(=O)CO [dexamethasone] | significantly lowered | significantly lower | significantly reduce | lowered | did not significantly alter | – | – |
| at least 6 h | C[C@@H]1CCN(C(=O)CC#N)C[C@@H]1N(C)c1ncnc2[nH]ccc12 [tofacitinib, Tofacitinib citrate] | – | – | – | – | – | no significant difference | significantly lower |
